Here are results for five cell lines from the supplement of paper PMC10307832.

Common to all, as to experiment: relative viability (nuclei count vs DMSO), 5 days (fraction); higher = more cells survive
Compound in the test “Olaparib + Phenformin”: O=C(c1cc(Cc2n[nH]c(=O)c3ccccc23)ccc1F)N1CCN(C(=O)C2CC2)CC1 [Olaparib] + N=C(N)NC(=N)NCCc1ccccc1 [Phenformin] (partner 250 µM)
The gist of the method: (§1)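 The day after seeding in 1536-well plates, lung cancer cell lines were treated by pin tool with a single drug, or with a fixed anchor-drug dose together with five library-drug doses (not always all listed) in √10 steps. After 5 days, a combined fix-and-stain solution (final 0.05% Triton X-100, 1% formaldehyde, 1 ug/ml Hoechst) was added. Nuclei counted on 4× images gave relative viability as treated counts over vehicle counts, reported as the median of duplicate plates.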

Compound in the test “Crizotinib + Tozasertib”: C[C@@H](Oc1cc(-c2cnn(C3CCNCC3)c2)cnc1N)c1c(Cl)ccc(F)c1Cl [Crizotinib] + Cc1cc(Nc2cc(N3CCN(C)CC3)nc(Sc3ccc(NC(=O)C4CC4)cc3)n2)n[nH]1 [Tozasertib] (partner 0.1 µM)
In short, it runs like this:
as §1

Compound in the test “Carfilzomib + Trametinib”: CC(C)C[C@H](NC(=O)[C@H](CCc1ccccc1)NC(=O)CN1CCOCC1)C(=O)N[C@@H](Cc1ccccc1)C(=O)N[C@@H](CC(C)C)C(=O)[C@@]1(C)CO1 [Carfilzomib] + CC(=O)Nc1cccc(-n2c(=O)n(C3CC3)c(=O)c3c(Nc4ccc(I)cc4F)n(C)c(=O)c(C)c32)c1 [Trametinib] (partner 0.02 µM)
In short, it runs like this:
as §1

Compound in the test “Carfilzomib + Vorinostat”: CC(C)C[C@H](NC(=O)[C@H](CCc1ccccc1)NC(=O)CN1CCOCC1)C(=O)N[C@@H](Cc1ccccc1)C(=O)N[C@@H](CC(C)C)C(=O)[C@@]1(C)CO1 [Carfilzomib] + O=C(CCCCCCC(=O)Nc1ccccc1)NO [Vorinostat] (partner 1 µM)
In short, it runs like this:
as §1

On to NCI-H2405, for which the relative viability was 0.432 with Olaparib + Phenformin (first compound 0.08 µM); 0.373 with Olaparib + Phenformin (first compound 0.253 µM); 0.388 with Olaparib + Phenformin (first compound 2.53 µM); 0.426 with Olaparib + Phenformin (first compound 8 µM); 0.702 with Crizotinib + Tozasertib (first compound 0.01 µM); 0.811 with Crizotinib + Tozasertib (first compound 0.03162 µM). For the same cell line, the relative viability with Crizotinib + Tozasertib (first compound 0.1 µM) worked out at 0.761; with Crizotinib + Tozasertib (first compound 0.3162 µM), 0.706; with Crizotinib + Tozasertib (first compound 1 µM) it was 0.697; with Carfilzomib + Trametinib (first compound 0.001 µM) it was 0.758; with Carfilzomib + Trametinib (first compound 0.003162 µM) it was 0.748; with Carfilzomib + Trametinib (first compound 0.01 µM) it was 0.686. The relative viability with Carfilzomib + Trametinib (first compound 0.03162 µM) turned out to be 0.536; in the test with Carfilzomib + Trametinib (first compound 0.1 µM) it was 0.236; with Carfilzomib + Vorinostat (first compound 0.001 µM) it was 0.998; in the test with Carfilzomib + Vorinostat (first compound 0.003162 µM), 1.17; in the test with Carfilzomib + Vorinostat (first compound 0.01 µM) it was 1.06; with Carfilzomib + Vorinostat (first compound 0.03162 µM) it was 0.376. Besides, in the test with Carfilzomib + Vorinostat (first compound 0.1 µM), the relative viability came out at 0.148.
Regarding NCI-H727, the relative viability worked out at 0.634 in the test with Olaparib + Phenformin (first compound 0.08 µM); 0.662 with Olaparib + Phenformin (first compound 0.253 µM); 0.556 with Olaparib + Phenformin (first compound 2.53 µM); 0.396 with Olaparib + Phenformin (first compound 8 µM); 0.605 with Crizotinib + Tozasertib (first compound 0.03162 µM); 0.612 in the test with Crizotinib + Tozasertib (first compound 0.1 µM). Further, the relative viability with Crizotinib + Tozasertib (first compound 1 µM) is 0.634; with Carfilzomib + Trametinib (first compound 0.001 µM), 0.428; with Carfilzomib + Trametinib (first compound 0.003162 µM) it was 0.376; with Carfilzomib + Trametinib (first compound 0.01 µM), 0.46; in the test with Carfilzomib + Trametinib (first compound 0.03162 µM), 0.41; with Carfilzomib + Trametinib (first compound 0.1 µM), 0.312. In addition, the relative viability in the test with Carfilzomib + Vorinostat (first compound 0.001 µM) worked out at 0.999; with Carfilzomib + Vorinostat (first compound 0.003162 µM) it was 1.14; with Carfilzomib + Vorinostat (first compound 0.01 µM) it was 1.45; with Carfilzomib + Vorinostat (first compound 0.03162 µM) it was 1.01; in the test with Carfilzomib + Vorinostat (first compound 0.1 µM), 0.651.
As for SW 1573, the relative viability stood at 0.444 with Olaparib + Phenformin (first compound 0.08 µM); 0.373 in the test with Olaparib + Phenformin (first compound 0.253 µM); 0.266 with Olaparib + Phenformin (first compound 2.53 µM); 0.258 in the test with Olaparib + Phenformin (first compound 8 µM); 0.178 in the test with Crizotinib + Tozasertib (first compound 0.01 µM); 0.216 in the test with Crizotinib + Tozasertib (first compound 0.03162 µM). Besides, the relative viability with Crizotinib + Tozasertib (first compound 0.1 µM) came to 0.188; in the test with Crizotinib + Tozasertib (first compound 0.3162 µM), 0.198; in the test with Crizotinib + Tozasertib (first compound 1 µM), 0.162; with Carfilzomib + Trametinib (first compound 0.001 µM) it was 0.55; with Carfilzomib + Trametinib (first compound 0.003162 µM) it was 0.626; with Carfilzomib + Trametinib (first compound 0.01 µM) it was 0.55. Moreover, the relative viability is 0.0697 with Carfilzomib + Trametinib (first compound 0.03162 µM); 0.0572 in the test with Carfilzomib + Trametinib (first compound 0.1 µM); 0.648 with Carfilzomib + Vorinostat (first compound 0.001 µM); 1.31 with Carfilzomib + Vorinostat (first compound 0.003162 µM); 0.243 with Carfilzomib + Vorinostat (first compound 0.01 µM); 0.0435 with Carfilzomib + Vorinostat (first compound 0.03162 µM). Further, the relative viability with Carfilzomib + Vorinostat (first compound 0.1 µM) worked out at 0.041.
On to HCC-44, for which the relative viability in the test with Olaparib + Phenformin (first compound 0.08 µM) amounted to 0.208; in the test with Olaparib + Phenformin (first compound 0.253 µM), 0.167; in the test with Olaparib + Phenformin (first compound 2.53 µM), 0.271; with Olaparib + Phenformin (first compound 8 µM) it was 0.225; in the test with Crizotinib + Tozasertib (first compound 0.01 µM), 0.936; with Crizotinib + Tozasertib (first compound 0.1 µM), 0.992. Further, the relative viability was 0.836 with Crizotinib + Tozasertib (first compound 0.3162 µM); 1.01 with Crizotinib + Tozasertib (first compound 1 µM); 0.966 in the test with Carfilzomib + Trametinib (first compound 0.001 µM); 1.08 with Carfilzomib + Trametinib (first compound 0.003162 µM); 1 with Carfilzomib + Trametinib (first compound 0.01 µM); 1.07 in the test with Carfilzomib + Trametinib (first compound 0.03162 µM). The relative viability in the test with Carfilzomib + Trametinib (first compound 0.1 µM) amounted to 0.77; with Carfilzomib + Vorinostat (first compound 0.001 µM) it was 1.2; in the test with Carfilzomib + Vorinostat (first compound 0.003162 µM), 1.1; with Carfilzomib + Vorinostat (first compound 0.01 µM), 1.13; in the test with Carfilzomib + Vorinostat (first compound 0.03162 µM) it was 1.17; with Carfilzomib + Vorinostat (first compound 0.1 µM) it was 0.604.
As to A-427, the relative viability in the test with Olaparib + Phenformin (first compound 0.08 µM) is 0.461; with Olaparib + Phenformin (first compound 0.253 µM), 0.259; in the test with Olaparib + Phenformin (first compound 2.53 µM) it was 0.258; in the test with Olaparib + Phenformin (first compound 8 µM) it was 0.241; in the test with Crizotinib + Tozasertib (first compound 0.01 µM), 0.17; in the test with Crizotinib + Tozasertib (first compound 0.03162 µM) it was 0.199. Also, the relative viability was 0.215 with Crizotinib + Tozasertib (first compound 0.1 µM); 0.212 with Crizotinib + Tozasertib (first compound 1 µM); 0.83 with Carfilzomib + Trametinib (first compound 0.001 µM); 0.744 in the test with Carfilzomib + Trametinib (first compound 0.003162 µM); 0.755 with Carfilzomib + Trametinib (first compound 0.01 µM); 0.528 with Carfilzomib + Trametinib (first compound 0.03162 µM). The relative viability in the test with Carfilzomib + Trametinib (first compound 0.1 µM) amounted to 0.201; in the test with Carfilzomib + Vorinostat (first compound 0.001 µM) it was 0.874; in the test with Carfilzomib + Vorinostat (first compound 0.003162 µM), 0.859; with Carfilzomib + Vorinostat (first compound 0.01 µM), 0.842; in the test with Carfilzomib + Vorinostat (first compound 0.03162 µM), 0.307; with Carfilzomib + Vorinostat (first compound 0.1 µM), 0.15.
